Results reported in the supplement of paper PMC11061612.

Tested on: U-698-M
Conditions: B-Cell Non-Hodgkin's Lymphoma
Procedure, shortened: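 Cancer cell lines were plated in 1536-well plates in 7.5 μl of DMEM/F12 or RPMI with 10% FBS and kept 24 hours at 37°C and 5% CO2 before 72 hours of dosing, with final DMSO typically 0.2%. CellTiter-Glo 2.0 luminescence measured viability, scaled between blank-well and DMSO-well means. Dose responses were fitted to a two-parameter logistic curve with a non-linear mixed effects model. This fit gives the single-agent IC50.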

Row | SMILES | IC50, cell viability 72 h (max 10 µM) [µM] | also measured
1 | N.N.O=C([O-])C1(C(=O)[O-])CCC1.[Pt+2] [Carboplatin] | > 10 | 
2 | Cc1nc(-c2cn3c(n2)-c2ccc(-c4cnn(C(C)(C)C(N)=O)c4)cc2OCC3)n(C(C)C)n1 [Taselisib] | 5.68 | 
3 | C=CCn1c(=O)c2cnc(Nc3ccc(N4CCN(C)CC4)cc3)nc2n1-c1cccc(C(C)(C)O)n1 [AZD1775] |  | IC50, cell viability 72 h (max 3 µM): 0.26 µM
4 | C[C@@H]1COCCN1c1cc(C2([S@](C)(=N)=O)CC2)nc(-c2ccnc3[nH]ccc23)n1 [AZD6738] | 2.21 | 
5 | CC(=O)O[C@H]1C(=O)[C@@]2(C)[C@H]([C@H](OC(=O)c3ccccc3)[C@]3(O)C[C@H](OC(=O)[C@H](O)[C@@H](NC(=O)c4ccccc4)c4ccccc4)C(C)=C1C3(C)C)[C@]1(OC(C)=O)CO[C@@H]1C[C@@H]2O [Paclitaxel] |  | IC50, cell viability 72 h (max 3 µM): 0.0059 µM
6 | C[C@@H](Oc1cc(-c2cnn(C3CCNCC3)c2)cnc1N)c1c(Cl)ccc(F)c1Cl [Crizotinib] | 5.06 | 
7 | COc1cc([C@@H]2c3cc4c(cc3[C@@H](O[C@@H]3O[C@@H]5CO[C@@H](C)O[C@H]5[C@H](O)[C@H]3O)[C@H]3COC(=O)[C@H]23)OCO4)cc(OC)c1O [Etoposide] | 4.93 | 
8 | O=C(c1cc(Cc2n[nH]c(=O)c3ccccc23)ccc1F)N1CCN(C(=O)C2CC2)CC1 [Olaparib] | > 10 | 
9 | NC1(C(=O)N[C@@H](CCO)c2ccc(Cl)cc2)CCN(c2ncnc3[nH]ccc23)CC1 [AZD5363] | 8.27 | 
10 | CCN(CCO)CCCOc1ccc2c(Nc3cc(CC(=O)Nc4cccc(F)c4)[nH]n3)ncnc2c1 [AZD2811] |  | IC50, cell viability 72 h (max 1 µM): > 1 µM
